“And” between values parts separate entries of the source, which are not always exact repeats. Equal values may be shown once. Read-outs that look alike come from different tables or passages of the source.
Key:
[1] = tested on: P. vivax Brazilian field isolates; assay: Ex vivo drug susceptibility of Brazilian field isolates (P. vivax); format: cell-based; settings: Plasmodium vivax
Procedure: Compounds were assayed on ten P. vivax isolates and seven P. falciparum Brazilian isolates collected from mono-infected patients, who had signed a written informed consent form to participate in the study, using previously described methods. The initial parasitemia ranged from 2,100–8,000 parasites/μL for P. vivax and 3,500–9,000 parasites/μL for P. falciparum isolates. Artesunate and chloroquine were assayed in parallel as standard compounds. The analyses included only the isolates that were incubated for ≥ 40 h with the compounds.

Solubility = format: physicochemical
[2] = Blood exposure in the P. falciparum infected SCID mouse model; format: in vivo, NODscidIL2Rγ^null mice engrafted with human RBCs; settings: for Cmax / Tmax / AUC(0-t): female, mouse, whole blood, po
Procedure: The model using P. falciparum Pf3D7^0087/N9 in NODscidIL2Rγ^null mice engrafted with human RBCs was adapted from a previously described procedure. Female NODscidIL2Rγ^null mice were purchased from Charles River (Germany). Briefly, two engrafted mice/dosing group (females, 20–22 g) were infected intravenously with 2 x 10^7 P. falciparum (Pf3D7^0087/N9) on day 0. The antimalarial efficacy was assessed following administration (p.o.) of 100 or 200 mg/kg of compound or of 4 daily doses of 50 mg/kg, initiated on day 3 post-infection. The effect on blood parasitemia was measured by microscopic analysis of Giemsa-stained blood smears (on days 3, 4, 5, 6 and 7 post-infection). Mice were euthanized on day 7. Animal were monitored for symptoms of acute toxicity, including decreased activity, sunken flanks, ataxia and blood in faeces.
On day 3, blood samples (20 μL) were obtained at time points up to 24 h after the first administration. Protein was precipitated with acetonitrile and the remaining compound was assessed by LC-MS/MS in the selected reaction monitoring mode using HESI ionization in positive ion mode.

[3] = tested on: P. falciparum liver stage schizont (NF175); assay: Liver stage schizont assay in primary human hepatocytes (NF175); format: cell-based; settings: Plasmodium falciparum, Hepatocyte, 96 h, four days
Procedure: Activity against liver stage parasites was performed using a modification of published procedures. Briefly, cryopreserved human primary hepatocytes (NF175: H1500.H15B+ Lot No. HC0-6, TebuBio or NF135: F00995-P Lot No. IRZ, BioIVT) were thawed and seeded at 18,000 cells per well in collagen-coated 384-well microtiter plates in medium containing 10% heat inactivated fetal bovine serum (hiFBS). Cells were cultured at 37°C in 5% CO2. For NF175, medium was replaced by fresh medium containing 10% hiFBS, 5 h post plating. For NF135, medium was replaced by medium containing 0.2% BSA, 24 h post plating. 48 h post plating, salivary glands from Plasmodium-NF175 or NF135-infected Anopheles stephensi mosquitoes were dissected, added to the hepatocytes (10,000 per well/ NF175; or 12,500 per well/ NF135) and allowed to infect for 3 hours. Sporozoites were then aspirated, and compounds diluted in medium containing 10% hiFBS or 0.2% BSA, were added to the hepatocytes. Medium containing 10% hiFBS or 0.2% BSA and compounds was refreshed daily for four days. […] Cells were imaged on a PicoExpress high content imager, and images were analysed automatically using CellReporterXpress software. Data were analysed by logistic regression using a four-parameter (Hill equation) model and a least-squares method to find the best fit.

[4] = tested on: CAM 3.II Rev parasites, trophozoite and schizont stages; assay: Pulsed exposure viability of trophozoite and schizont stages, flow cytometry of Syto-61-labelled parasites; format: cell-based, Plasmodium falciparum; settings: for LD50 Troph: trophozoite
[5] = tested on: P. falciparum liver stage schizont (NF175); design: method as in ref [1] Xie et al., Science 2022; settings: ref [1] Xie et al., Science 2022; cited from earlier work
[6] = 1 x 100 mg/kg p.o., mice M1, M2
[7] = 1 x 200 mg/kg p.o., mice M3, M4
[8] = 4 days x 50 mg/kg p.o., after first dose, blood
[9] = 4 days x 50 mg/kg p.o., mice M1, M2

CC(C)c1nn([C@@H]2O[C@H](COS(N)(=O)=O)[C@@H](O)[C@H]2O)c2ncnc(N)c12 [ML471, ((2R,3S,4R,5R)-5-(4-amino-3-isopropyl-1H-pyrazolo[3,4-d]pyrimidin-1-yl)-3,4-dihydroxytetrahydrofuran-2-yl)methyl sulfamate]
EC50 ([1]; range over n = 10 isolates, read-out: EC50 range, P. vivax Brazilian field isolates): 1.2 to 62 nM
EC50 ([1]; read-out: Median EC50, P. vivax Brazilian field isolates): 8 nM
solubility (Solubility): > 100 µM
AUC0-120h/dose (mean) ([2]; 1 x 100 mg/kg p.o., blood): 2,500 (h*ng/mL)/(mg/kg)
Cmax/dose (mean) ([2]; 1 x 100 mg/kg p.o., blood): 33.5 (ng/mL)/(mg/kg)
AUC0-120h (individual mice) [2, 6]: 260,000 h*ng/mL
AUC0-120h/dose (individual mice) [2, 6]: 2,390 (h*ng/mL)/(mg/kg) and 2,600 (h*ng/mL)/(mg/kg)
Cmax (individual mice) [2, 6]: 3,600 ng/mL
Cmax/dose (individual mice) [2, 6]: 31 (ng/mL)/(mg/kg) and 36 (ng/mL)/(mg/kg)
AUC0-120h/dose (mean) ([2]; 1 x 200 mg/kg p.o., blood): 1,070 (h*ng/mL)/(mg/kg)
Cmax/dose (mean) ([2]; 1 x 200 mg/kg p.o., blood): 18.8 (ng/mL)/(mg/kg)
AUC0-120h (individual mice) [2, 7]: 259,000 h*ng/mL
AUC0-120h/dose (individual mice) [2, 7]: 855 (h*ng/mL)/(mg/kg) and 1,290 (h*ng/mL)/(mg/kg)
Cmax (individual mice) [2, 7]: 4,180 ng/mL
Cmax/dose (individual mice) [2, 7]: 16.7 (ng/mL)/(mg/kg) and 20.9 (ng/mL)/(mg/kg)
AUC0-24h/dose (mean) [2, 8]: 422 (h*ng/mL)/(mg/kg)
Cmax/dose (mean) [2, 8]: 19.3 (ng/mL)/(mg/kg)
AUC0-24h (individual mice) [2, 9]: 22,572 h*ng/mL
AUC0-24h/dose (individual mice) [2, 9]: 451 (h*ng/mL)/(mg/kg) and 392 (h*ng/mL)/(mg/kg)
Cmax (individual mice) [2, 9]: 1,040 ng/mL
Cmax/dose (individual mice) [2, 9]: 17.8 (ng/mL)/(mg/kg) and 20.8 (ng/mL)/(mg/kg)
Tmax (individual mice) [2, 9]: 24 h
Cmax ([2]; NODscidIL2Rγ^null, 50 mg/kg, 4 days x 50 mg/kg p.o., after first dose, blood, read-out: Cmax (mean)): 964 ng/mL
Tmax ([2]; NODscidIL2Rγ^null, 50 mg/kg, 4 days x 50 mg/kg p.o., after first dose, blood, read-out: Tmax (mean)): 15 h
AUC(0-t) ([2]; NODscidIL2Rγ^null, 50 mg/kg, 4 days x 50 mg/kg p.o., mice M1, M2, read-out: AUC0-24h (individual mice)): 19.6 µg·h/mL
Cmax ([2]; NODscidIL2Rγ^null, 50 mg/kg, 4 days x 50 mg/kg p.o., mice M1, M2, read-out: Cmax (individual mice)): 888 ng/mL
Cmax ([2]; NODscidIL2Rγ^null, 100 mg/kg, 1 x 100 mg/kg p.o., blood, read-out: Cmax (mean)): 3350 ng/mL
Tmax ([2]; NODscidIL2Rγ^null, 100 mg/kg, 1 x 100 mg/kg p.o., blood, read-out: Tmax (mean)): 5 h
AUC(0-t) ([2]; NODscidIL2Rγ^null, 100 mg/kg, 1 x 100 mg/kg p.o., mice M1, M2, read-out: AUC0-120h (individual mice)): 239 µg·h/mL
Cmax ([2]; NODscidIL2Rγ^null, 100 mg/kg, 1 x 100 mg/kg p.o., mice M1, M2, read-out: Cmax (individual mice)): 3100 ng/mL
Tmax ([2]; NODscidIL2Rγ^null, 100 mg/kg, 1 x 100 mg/kg p.o., mice M1, M2, read-out: Tmax (individual mice)): 4 h
Cmax ([2]; NODscidIL2Rγ^null, 200 mg/kg, 1 x 200 mg/kg p.o., blood, read-out: Cmax (mean)): 3760 ng/mL
Tmax ([2]; NODscidIL2Rγ^null, 200 mg/kg, 1 x 200 mg/kg p.o., blood, read-out: Tmax (mean)): 4 h
AUC(0-t) ([2]; NODscidIL2Rγ^null, 200 mg/kg, 1 x 200 mg/kg p.o., mice M3, M4, read-out: AUC0-120h (individual mice)): 171 µg·h/mL
Cmax ([2]; NODscidIL2Rγ^null, 200 mg/kg, 1 x 200 mg/kg p.o., mice M3, M4, read-out: Cmax (individual mice)): 3340 ng/mL
Tmax ([2]; NODscidIL2Rγ^null, 200 mg/kg, 1 x 200 mg/kg p.o., mice M3, M4, read-out: Tmax (individual mice)): 4 h
AUC(0-t) ([2]; NODscidIL2Rγnull engrafted with human RBCs, 50 mg/kg, 4 x 50 mg/kg p.o., at 24 h after the first dose, read-out: AUC0-24h): 54 µM·h
AUC(0-t) ([2]; NODscidIL2Rγnull engrafted with human RBCs, 50 mg/kg, 4 days x 50 mg/kg p.o., after first dose, blood, read-out: AUC0-24h (mean)): 21.1 µg·h/mL
AUC(0-t) ([2]; NODscidIL2Rγnull engrafted with human RBCs, 100 mg/kg, 1 x 100 mg/kg p.o., blood, read-out: AUC0-120h (mean)): 250 µg·h/mL
AUC(0-t) ([2]; NODscidIL2Rγnull engrafted with human RBCs, 100 mg/kg, single dose 100 mg/kg p.o., read-out: AUC0-120h): 640 µM·h
AUC(0-t) ([2]; NODscidIL2Rγnull engrafted with human RBCs, 200 mg/kg, 1 x 200 mg/kg p.o., blood, read-out: AUC0-120h (mean)): 215 µg·h/mL
AUC(0-t) ([2]; NODscidIL2Rγnull engrafted with human RBCs, 200 mg/kg, single dose 200 mg/kg p.o., read-out: AUC0-120h): 550 µM·h
IC50 [3]: 2.8 nM

Nc1ncnc2c1c(OC(F)F)nn2[C@@H]1O[C@H](COS(N)(=O)=O)[C@@H](O)[C@H]1O [ML901]
LD50 Schizont ([4]; 30 h continuous): 8.5 ± 0.7 nM
LD50 Schizont ([4]; drug pulse time 3 h): 88 ± 1 nM
LD50 Schizont ([4]; drug pulse time 6 h): 36 ± 6 nM
LD50 Schizont ([4]; drug pulse time 9 h): 21 ± 12 nM
fold lower sensitivity of trophozoite stage compared with schizont stage ([4]; short pulses of 3 h or 6 h): 10 to 20 fold
LD50 Troph ([4]; 48 h continuous): 3.9 ± 0.8 nM
LD50 Troph ([4]; drug pulse time 3 h): 1700 ± 460 nM
LD50 Troph ([4]; drug pulse time 6 h): 680 ± 48 nM
LD50 Troph ([4]; drug pulse time 9 h): 290 ± 150 nM
LD50 Troph ([4]; drug pulse time 24 h): 4.0 ± 0.0 nM
IC50 [5]: 13 ± 5 nM
